Experimental data taken from publication PMC12926254, “Novel pyrazole carboxylate derivatives as lonazolac bioisosteres with selective COX-2 inhibition: design, synthesis and anti-inflammatory activity” (Molecular Diversity, 2025).
Marks after values point to notes of the source that are not given here.

Columns and labels:
gastric mucosa = test: Ulcerogenic liability (ulcer index); type: in vivo; details: 50 mg/kg orally, three successive days, rats
Experimental: […]. […] Rats were divided into 7 groups and fasted for 18 h before drug administration. The control group received the vehicle (2.5% Tween 80). […] After 2 h, animals were fed. Rats were given the required dose orally for three successive days. After 2 h of the last dose, rats were sacrificed; the stomach of each rat was removed then opened along the greater curvature and rinsed with saline. In order to examine the stomach, it was stretched by pins on a corkboard. The gastric mucosa was carefully inspected for the occurrence of ulcers with the aid of an illuminated magnifying lens (l0x), then ulcer index was calculated according to the method described by Cho and Ogle. Lesions were counted and measured along the greater diameter using transparent ruler. Every five hemorrhagic spots were considered equivalent to 1 mm of ulcer. The ulcer index (mm) was calculated from the sum of the total length of ulcers and hemorrhagic spots in each stomach.

COX-1 = target: T1, COX-1 (Ovis aries, UniProt P05979); test: In vitro COX-1 inhibition (COX-1 Inhibitor Screening Kit-K548, Biovision); type: biochemical; details: mean of six values ± standard deviation
T1 construct: purchased Biovision K548
T1 sequence (P05979 25-600): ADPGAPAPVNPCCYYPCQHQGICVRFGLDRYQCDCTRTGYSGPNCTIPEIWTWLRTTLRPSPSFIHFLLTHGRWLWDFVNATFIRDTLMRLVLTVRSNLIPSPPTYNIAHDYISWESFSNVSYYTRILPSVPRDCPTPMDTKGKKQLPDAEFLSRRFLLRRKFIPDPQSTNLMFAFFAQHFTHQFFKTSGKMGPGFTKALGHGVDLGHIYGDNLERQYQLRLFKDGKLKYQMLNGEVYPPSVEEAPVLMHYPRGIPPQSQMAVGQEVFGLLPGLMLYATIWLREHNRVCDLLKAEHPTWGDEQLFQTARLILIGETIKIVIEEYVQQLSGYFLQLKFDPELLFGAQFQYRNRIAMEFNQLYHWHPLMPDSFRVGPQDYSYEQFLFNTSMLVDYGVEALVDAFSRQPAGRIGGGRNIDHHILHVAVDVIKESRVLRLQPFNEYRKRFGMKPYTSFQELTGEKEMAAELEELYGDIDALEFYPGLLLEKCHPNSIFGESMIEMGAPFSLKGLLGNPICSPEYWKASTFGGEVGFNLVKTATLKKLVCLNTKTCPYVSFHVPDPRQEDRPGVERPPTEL
Experimental: The IC50 value of the tested compounds was determined.
COX-1 inhibitor Screening Protocol: Dissolve the tested compounds in DMSO. Use COX assay buffer to dilute the relevant test concentration by 10X before using. Place 10 µl of diluted test inhibitor or assay buffer in the specified wells instead of the sample screen (S) or enzyme control (EC; no inhibitor). To one of the wells, add 2 µl of SC560 and 8 µl of COX Assay Buffer as an inhibitor control (IC). Before using, combine 2 µl of COX Cofactor with 398 µl of COX Assay Buffer to dilute COX cofactor 200 times. Blend thoroughly. Just before using, mix 5 µl of the provided arachidonic acid with 5 µl of NaOH to make the arachidonic acid solution. Combine quickly using a vortex. To dilute the arachidonic acid/NaOH solution 10 times, add 90 µl of water. There should be 80 µl of reaction mix in each well. Using a multi-channel pipette, add 10 µl of diluted arachidonic acid/NaOH solution to each well to initiate all the reactions at once.

PGE2 = PGE2 production in LPS-activated RAW 264.7 macrophages (ELISA); details: Mus musculus, RAW264.7, read-out: PGE2 IC50
5-LOX = target: T2, 5-LOX (Homo sapiens, UniProt P09917); test: In vitro 5-LOX inhibition (5-Lipoxygenase Inhibitor Screening Kit K980-100, Biovision)
T2 sequence (P09917 1-674): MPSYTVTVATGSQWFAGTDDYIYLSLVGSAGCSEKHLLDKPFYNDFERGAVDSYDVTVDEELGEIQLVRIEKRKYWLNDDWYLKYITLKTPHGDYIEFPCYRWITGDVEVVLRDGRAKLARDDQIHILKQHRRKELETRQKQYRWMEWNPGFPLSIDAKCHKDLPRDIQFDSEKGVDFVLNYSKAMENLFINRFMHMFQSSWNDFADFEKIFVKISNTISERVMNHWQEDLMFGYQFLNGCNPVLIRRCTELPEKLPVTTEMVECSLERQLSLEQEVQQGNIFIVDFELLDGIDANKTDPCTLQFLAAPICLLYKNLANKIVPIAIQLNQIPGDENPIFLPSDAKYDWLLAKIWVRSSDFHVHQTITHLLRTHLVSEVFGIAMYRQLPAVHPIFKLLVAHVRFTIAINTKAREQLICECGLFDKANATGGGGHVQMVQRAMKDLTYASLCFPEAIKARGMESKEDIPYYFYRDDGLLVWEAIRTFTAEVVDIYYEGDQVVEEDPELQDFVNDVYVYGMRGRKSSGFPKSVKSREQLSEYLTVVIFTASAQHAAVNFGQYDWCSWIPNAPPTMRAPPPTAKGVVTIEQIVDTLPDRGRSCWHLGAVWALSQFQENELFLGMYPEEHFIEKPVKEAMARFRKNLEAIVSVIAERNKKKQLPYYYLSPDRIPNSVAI
Experimental: 5-LOX inhibitor Screening Protocol: dissolve the test compounds in DMSO. The solution was prepared at a concentration so that the final 100 µl reaction volume per well contains no more than 2 µl of the test chemical solution added to it. Each well was filled in the 96-well white plate with 2 µl of the test substance. […] To the “Enzyme Control” well, was filled with 40 µl of LOX Assay Buffer. In order to run the required number of assays, enough reagents were mixed. 40 µl of the following mix was prepared for each well: Buffer for Reaction MIx LOX Assay 34 µl LOX Probe 2 µl 5. LOX Enzyme 4 µl After thoroughly mixing, the Reaction Mix was transferred to the wells holding the Test Compounds, Enzyme Control, Inhibitor Control, and “Solvent Control.” substrate was added after 10 min of RT incubation of the plate. The wells shouldn’t contain any bubbles. […] To obtain the 5X solution, the 500 X solution with LOX Assay Buffer was diluted at a ratio of 1:100, depending on the number of reactions to be conducted. For each reaction, 20 µl of 5X solution will be required. How much substrate is needed based on the number of reactions. The final substrate functioning solution needs to be consumed that same day and stored on ice. The remaining stock solution should be immediately stored at -20 °C. 20 µl of 5X LOX Substrate should be added with a multichannel pipette to every well. […] To get the RFU for each sample, the RFU was subtracted at time t1 from the RFU at time t2, making sure that both t2 and t1 fall within the assay's linear range. The slope for each sample (including the “enzyme control”)was multiplied by the time Δt (t2 – t1) to find the ΔRFU. In the equations below, the values was substituted for “Solvent Control” for “Enzyme Control” if the two slopes disagree. %Inhibition=[slopeof(enzymecontrol)-slopeof(testcompound)]/slopeof(enzymecontrol)×100 %Relativeactivity=[slope(testcompound)]/slope(enzymecontrol)×100

MTS cytotoxicity assay = type: cell-based; details: mouse, RAW 264.7 macrophages (heading: LPS-induced), read-out: Cytotoxicity IC50 (LPS-induced RAW 264.7 cells)
Experimental: Using Dulbecco’s Modified Eagle Medium (DMEM, Biowest L0060) supplemented with 10% foetal bovine serum (FBS) (Biowest, S1810) and 1% anti-biotic and anti-mycotic (Biowest, L0010-100), the RAW264.7 macrophage cell line (ATCC ® TIB-71TM) was cultivated. The cells were then incubated at 37 °C with 5% CO2 until they were confluent, which should be between 70 and 80%. After two to three days, the growth media was regularly changed. Trypsin–EDTA was then used to wash and collect the cells (Biowest, L0931-500).
The MTS (3-(4,5-dimethylthiazol-2-yl)-5-(3-carboxymethoxy-phenyl)-2-(4-sulfophenyl)-2H-tetrazolium) test (Promega, ab197010) was used to determine cell viability. In short, a 96-well plate was seeded with 5 × 10^3 cells per well, and the cells were then incubated for 24 h at 37 °C and 5% CO2. The cells were then re-incubated for 24 h at 37 °C and 5% CO2 after the medium was discarded and replaced with 180 µl of fresh growth media and 20 µl of sample (1000 ug, 250 ug, 63 ug, 16 ug, and 4 ug µg/mL). 20 µl of MTS was then added to each well, and the mixture was incubated for three hours at 37 °C with 5% CO2. […] Control cells were those that received no treatment.

| IC50 (COX-1) [µM] | IC50 (PGE2) [µM] | IC50 (5-LOX) [µM] | SMILES | % incidence /10 (gastric mucosa) | Average no of ulcer (gastric mucosa) | Average severity (gastric mucosa) | IC50 at 24 h (MTS cytotoxicity assay) [µM] |
| --- | --- | --- | --- | --- | --- | --- | --- |
| 15.5 ± 0.61 | 0.33 ± 0.021 | 0.241 ± 0.009 | CCOC(=O)COc1ccc(C2=NN(c3ccc(S(C)(=O)=O)cc3)C(c3cc(OC)c(OC)c(OC)c3)C2)cc1 (stereo not drawn) [Compound 15d, Ethyl 2-(4-(1-(4-(methylsulfonyl)phenyl)-5-(3,4,5-trimethoxyphenyl)-4,5-dihydro-1H-pyrazol-3-yl)phenoxy)acetate] | 2 | 0.47 ± 0.006^b | 0.51 ± 0.013^b | 183 ± 6.52 |
| 6.88 ± 0.25 | 0.28 ± 0.032 | 0.813 ± 0.032 | CCOC(=O)COc1ccc(C2=NN(c3ccc(S(C)(=O)=O)cc3)C(c3ccc(Br)cc3)C2)cc1 (stereo not drawn) [Compound 15 h, Ethyl 2-(4-(5-(4-bromophenyl)-1-(4-(methylsulfonyl)phenyl)-4,5-dihydro-1H-pyrazol-3-yl)phenoxy)acetate] | 2 | 0.40 ± 0.006^b | 0.29 ± 0.009***^b | 179 ± 6.37 |
| 11.3 ± 0.45 | 0.52 ± 0.029 | 0.453 ± 0.018 | CCOC(=O)COc1ccc(C2=NN(c3ccc(S(C)(=O)=O)cc3)C(c3ccc(OC)cc3)C2)cc1 (stereo not drawn) [Compound 15c, Ethyl 2-(4-(5-(4-methoxyphenyl)-1-(4-(methylsulfonyl)phenyl)-4,5-dihydro-1H-pyrazol-3-yl)phenoxy)acetate] | 2 | 0.55 ± 0.012***^b | 0.17 ± 0.004***^b | 301 ± 10.7 |
